The record followed here is patent US20100144733A1, “Compounds, compositions and methods comprising heteroaromatic derivatives” (Institute for OneWorld Health, priority 2008, published 2010).

The target of one assay is T1, CFTR (Homo sapiens, UniProt P13569).
T1 construct: endogenous in cells; host or cells: T84 human colonic cells (ECACC)
T1 sequence (P13569 whole entry): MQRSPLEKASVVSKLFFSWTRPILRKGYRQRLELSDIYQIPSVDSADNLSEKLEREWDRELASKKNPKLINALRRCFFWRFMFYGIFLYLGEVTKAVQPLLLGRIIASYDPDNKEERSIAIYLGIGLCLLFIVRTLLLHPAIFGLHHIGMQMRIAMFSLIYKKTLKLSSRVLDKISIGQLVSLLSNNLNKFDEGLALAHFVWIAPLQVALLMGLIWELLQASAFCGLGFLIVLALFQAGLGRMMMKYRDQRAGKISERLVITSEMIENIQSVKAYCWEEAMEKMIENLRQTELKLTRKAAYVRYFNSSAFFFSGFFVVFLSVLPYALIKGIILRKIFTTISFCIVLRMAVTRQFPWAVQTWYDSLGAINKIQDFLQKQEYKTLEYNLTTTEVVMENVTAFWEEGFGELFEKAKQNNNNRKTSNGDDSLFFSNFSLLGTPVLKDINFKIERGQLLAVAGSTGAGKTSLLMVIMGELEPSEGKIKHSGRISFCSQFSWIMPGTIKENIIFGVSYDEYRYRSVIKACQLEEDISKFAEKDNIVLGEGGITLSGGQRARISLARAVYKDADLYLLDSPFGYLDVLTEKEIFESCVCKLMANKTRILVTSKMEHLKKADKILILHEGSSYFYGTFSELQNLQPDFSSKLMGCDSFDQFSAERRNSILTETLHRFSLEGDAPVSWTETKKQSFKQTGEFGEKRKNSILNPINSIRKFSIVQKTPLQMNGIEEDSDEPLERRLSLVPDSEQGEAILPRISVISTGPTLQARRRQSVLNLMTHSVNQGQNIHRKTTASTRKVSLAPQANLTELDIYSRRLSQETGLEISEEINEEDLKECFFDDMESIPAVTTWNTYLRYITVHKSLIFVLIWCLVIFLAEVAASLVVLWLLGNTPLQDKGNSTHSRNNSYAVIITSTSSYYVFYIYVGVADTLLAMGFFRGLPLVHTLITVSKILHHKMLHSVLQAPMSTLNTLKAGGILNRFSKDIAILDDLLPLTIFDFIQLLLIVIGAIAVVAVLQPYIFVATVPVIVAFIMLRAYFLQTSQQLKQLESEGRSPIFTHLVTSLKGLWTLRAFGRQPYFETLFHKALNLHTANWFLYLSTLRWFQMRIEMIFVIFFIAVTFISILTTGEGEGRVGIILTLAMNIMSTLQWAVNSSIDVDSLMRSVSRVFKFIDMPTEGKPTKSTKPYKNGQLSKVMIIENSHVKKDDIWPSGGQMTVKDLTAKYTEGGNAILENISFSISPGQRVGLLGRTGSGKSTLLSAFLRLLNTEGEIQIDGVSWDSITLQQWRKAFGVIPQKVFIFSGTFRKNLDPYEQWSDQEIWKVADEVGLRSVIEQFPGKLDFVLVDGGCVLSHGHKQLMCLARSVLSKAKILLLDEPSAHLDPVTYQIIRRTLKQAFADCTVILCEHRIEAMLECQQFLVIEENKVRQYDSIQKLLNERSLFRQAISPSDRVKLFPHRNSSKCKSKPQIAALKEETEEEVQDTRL
Kind of assay: T84 assay (FLIPR membrane potential dye, forskolin/IBMX-stimulated CFTR channel activity). In kind it is cell-based. To be noted: imidazole and triazole-containing compounds (Tables 13, 14, 14′), read-out: IC50 (μM) (T84 assay). Here is the method: (§1) For example, Human colonic T84 cells can be acquired from the European Collection of Cell Cultures (ECACC) and grown in standard culture conditions as described by the supplier. On the day before assay 25,000 T84 cells per well are plated into standard black walled, clear bottom 384-well assay plates in standard growth medium consisting of DMEM:F12 with 10% FBS and incubated overnight. On the day of the assay the plates are washed using a standard assay buffer (HBSS with 10 mM Hepes) and incubated for 15 minutes in serum free cell culture medium before the addition of a commercially available membrane potential sensitive fluorescent dye (FLIPRRed membrane potential dye, Molecular Devices Corporation). T84 cells are incubated with the FLIPRRed membrane potential dye for 45 minutes in the presence and absence of test compound before being transferred to a commercially available fluorescence imaging plate reader (FLIPR384, Molecular Devices Corporation). Fluorescence levels are monitored continuously every second for 150 seconds; after an initial 10 second baseline, CFTR channel activity is stimulated through the addition of 10 μM forskolin in the presence of 100 μM of the phosphodiesterase inhibitor iso-butyl-methylxanthine (IBMX). Addition of the forskolin leads to the activation of intracellular adenylyl cylase 1, elevating cAMP levels and results in the phosphorylation and opening of CFTR anion channels. CFTR channel opening causes chloride ion efflux and subsequent depolarization of the cells, which is measured by an increase in fluorescence. CFTR inihibitor compounds prevent cell depolarization and the associatred increase in fluorescence.
as §1, with “Human colonic” for “For example, Human colonic”, “T84 cells are acquired from” for “T84 cells can be acquired from”, “(ECACC) and are grown in” for “(ECACC) and grown in”, “10 μM Forskolin in the” for “10 μM forskolin in the”, “fluorescence. CFTR inhibitor compounds prevent” for “fluorescence. CFTR inihibitor compounds prevent”, “and the associated increase in” for “and the associatred increase in”
By IC50 is commonly meant the concentration that inhibits the measured activity by half. As for `O=C(NCc1cccc(C(F)(F)F)c1)c1ncn(-c2cc(Cl)c(O)c(Cl)c2)n1` [8i, 1-(3,5-dichloro-4-hydroxyphenyl)-N-(3-(trifluoromethyl)benzyl)-1H-1,2,4-triazole-3-carboxamide], the half-inhibitory concentration (IC50) is 22.4 µM.

As to `COCCOCCOCCOCCN(Cc1ccc(C(C)(C)C)cc1)C(=O)c1ncn(-c2cc(Cl)c(O)c(Cl)c2)n1` [120i, N-(4-tert-butylbenzyl)-1-(3,5-dichloro-4-hydroxyphenyl)-N-(2,5,8,11-tetraoxatridecan-13-yl)-1H-1,2,4-triazole-3-carboxamide], the half-maximal inhibitory concentration (IC50) is 5.9 µM.

As to `COCCOCCOCCOCCOCCN(Cc1ccc(C(C)(C)C)cc1)C(=O)c1ncn(-c2cc(Cl)c(O)c(Cl)c2)n1` [118i, N-(4-tert-butylbenzyl)-1-(3,5-dichloro-4-hydroxyphenyl)-N-(2,5,8,11,14-pentaoxahexadecan-16-yl)-1H-1,2,4-triazole-3-carboxamide], the IC50 came to 17.3 µM.

Still in this assay, the particulars now being: isoxazole-containing compounds (Table 10, 10′, 11, 11′), read-out: IC50.
Take `CN(Cc1ccc2c(c1)OCO2)C(=O)c1cc(-c2cc(Br)c(O)c(Br)c2)on1` [4g, N-(benzo[d][1,3]dioxol-5-ylmethyl)-5-(3,5-dibromo-4-hydroxyphenyl)-N-methylisoxazole-3-carboxamide]: the IC50 amounted to 19 µM.

Turning to `O=C(c1cc(-c2cc(Br)c(O)c(Br)c2)on1)N1CCN(c2ccc(Cl)c(Cl)c2)CC1` [10g, (5-(3,5-dibromo-4-hydroxyphenyl)isoxazol-3-yl)(4-(3,4-dichlorophenyl)piperazin-1-yl)methanone], the half-maximal inhibitory concentration (IC50) was found to be 7.4 µM.

As for `COc1ccccc1N1CCN(C(=O)c2cc(-c3cc(Br)c(O)c(Br)c3)on2)CC1` [11g, (5-(3,5-dibromo-4-hydroxyphenyl)isoxazol-3-yl)(4(2-methoxyphenyl)piperazin-1-yl)methanone], the IC50 was 14.2 µM.

The same assay, now with this note: oxadiazole-containing compounds (a series), average of at least 2 runs unless annotated n = 1, read-out: IC50.
With `O=C(NCc1ccc(C(F)(F)F)cc1)c1nc(-c2cc(Br)c(O)c(Br)c2)no1` [37a, 3-(3,5-dibromo-4-hydroxyphenyl)-N-(4-(trifluoromethyl)benzyl)-1,2,4-oxadiazole-5-carboxamide], the IC50 is 23 µM.

`CN(C)c1ccc(CNC(=O)c2noc(-c3cc(Cl)c(O)c(Cl)c3)n2)cc1` [158a, 5-(3,5-dichloro-4-hydroxyphenyl)-N-(4-(dimethylamino)benzyl)-1,2,4-oxadiazole-3-carboxamide]: the IC50 came to 17.5 µM.

With `COc1ccc(Oc2ccc(CNC(=O)c3nc(-c4cc(Cl)c(O)c(Cl)c4)no3)cc2)cc1Cl` [195a, N-(4-(3-chloro-4-methoxyphenoxy)benzyl)-3-(3,5-dichloro-4-hydroxyphenyl)-1,2,4-oxadiazole-5-carboxamide], the IC50 worked out at 8.92 µM.

As to `O=C(NCc1ccccc1F)c1nc(-c2cc(Br)c(O)c(Br)c2)no1` [35a, 3-(3,5-dibromo-4-hydroxyphenyl)-N-(2-fluorobenzyl)-1,2,4-oxadiazole-5-carboxamide], the IC50 was found to be 19.2 µM.

Consider `O=C(NCc1ccc(Oc2cccc(F)c2)cc1)c1nc(-c2cc(Cl)c(O)c(Cl)c2)no1` [194a, 3-(3,5-dichloro-4-hydroxyphenyl)-N-(4-(3-fluorophenoxy)benzyl)-1,2,4-oxadiazole-5-carboxamide], for which the IC50 stood at 10 µM.

As to `O=C(NCc1ccc(C(F)(F)F)cc1F)c1nc(-c2cc(Cl)c(O)c(Cl)c2)no1` [124a, 3-(3,5-dichloro-4-hydroxyphenyl)-N-(2-fluoro-4-(trifluoromethyl)benzyl)-1,2,4-oxadiazole-5-carboxamide], the IC50 was 14.6 µM.

Turning to `CN(Cc1cccc(Oc2ccccn2)c1)C(=O)c1nc(-c2cc(Cl)c(O)c(Cl)c2)no1` [178a, 3-(3,5-dichloro-4-hydroxyphenyl)-N-methyl-N-(3-(pyridin-2-yloxy)benzyl)-1,2,4-oxadiazole-5-carboxamide], the IC50 stood at 7.94 µM.

Regarding `O=C(NCc1ccc(Oc2ccccc2)cc1)c1noc(-c2cc(Cl)c(O)c(Cl)c2)n1` [79a, 5-(3,5-dichloro-4-hydroxyphenyl)-N-(4-phenoxybenzyl)-1,2,4-oxadiazole-3-carboxamide], the IC50 turned out to be 17.5 µM.

Take `O=C(NCc1ccccc1C(F)(F)F)c1nc(-c2cc(Br)c(O)c(Br)c2)no1` [36a, 3-(3,5-dibromo-4-hydroxyphenyl)-N-(2-(trifluoromethyl)benzyl)-1,2,4-oxadiazole-5-carboxamide]: the IC50 is 21.4 µM.

With `CCOc1ccc(Oc2ccc(CNC(=O)c3nc(-c4cc(Cl)c(O)c(Cl)c4)no3)cc2)cc1Cl` [184a, N-(4-(3-chloro-4-ethoxyphenoxy)benzyl)-3-(3,5-dichloro-4-hydroxyphenyl)-1,2,4-oxadiazole-5-carboxamide], the IC50 amounted to 13.6 µM.

In the case of `O=C(NCc1ccc(F)c(C(F)(F)F)c1)c1nc(-c2cc(Cl)c(O)c(Cl)c2)no1` [146a, 3-(3,5-dichloro-4-hydroxyphenyl)-N-(4-fluoro-3-(trifluoromethyl)benzyl)-1,2,4-oxadiazole-5-carboxamide], the IC50 stood at 11.2 µM.

On to `CCN(Cc1ccccc1)C(=O)c1nc(-c2cc(Cl)c(O)c(Cl)c2)no1` [140a, N-benzyl-3-(3,5-dichloro-4-hydroxyphenyl)-N-ethyl-1,2,4-oxadiazole-5-carboxamide], for which the half-maximal inhibitory concentration (IC50) was 19.9 µM.

As for `O=C(NCc1ccc(Oc2cc(Cl)cc(Cl)c2)cc1)c1nc(-c2cc(Cl)c(O)c(Cl)c2)no1` [196a, 3-(3,5-dichloro-4-hydroxyphenyl)-N-(4-(3,5-dichlorophenoxy)benzyl)-1,2,4-oxadiazole-5-carboxamide], the IC50 is 16.2 µM.

For the compound `CN(Cc1ccc(C(F)(F)F)cc1)C(=O)c1nc(-c2cc(Cl)c(O)c(Cl)c2)no1` [138a, 3-(3,5-dichloro-4-hydroxyphenyl)-N-methyl-N-(4-(trifluoromethyl)benzyl)-1,2,4-oxadiazole-5-carboxamide], the concentration for half-maximal inhibition (IC50) is 3.84 µM.

`O=C(NCc1ccc(Cn2cccn2)cc1)c1noc(-c2cc(Cl)c(O)c(Cl)c2)n1` [156a, N-(4-((1H-pyrazol-1-yl)methyl)benzyl)-5-(3,5-dichloro-4-hydroxyphenyl)-1,2,4-oxadiazole-3-carboxamide]: the IC50 stood at 20.9 µM.

As to `CN(Cc1cccc(C(F)(F)F)c1)C(=O)c1noc(-c2cc(Cl)c(OCC(=O)O)c(Cl)c2)n1` [106a, 2-(2,6-dichloro-4-(3-(methyl(3-(trifluoromethyl)benzyl)carbamoyl)-1,2,4-oxadiazol-5-yl)phenoxy)acetic acid], the IC50 came to 24.6 µM.

For the compound `O=C(NCc1cccc(F)c1)c1nc(-c2cc(Br)c(O)c(Br)c2)no1` [23a, 3-(3,5-dibromo-4-hydroxyphenyl)-N-(3-fluorobenzyl)-1,2,4-oxadiazole-5-carboxamide], the IC50 was found to be 12.7 µM.

Regarding `O=C(NCc1ccc(F)c(F)c1)c1noc(-c2cc(Cl)c(O)c(Cl)c2)n1` [80a, 5-(3,5-dichloro-4-hydroxyphenyl)-N-(3,4-difluorobenzyl)-1,2,4-oxadiazole-3-carboxamide], the IC50 was 8.14 µM.

For the compound `O=C(c1nc(-c2cc(Br)c(O)c(Br)c2)no1)N1CCN(c2cccc(F)c2)CC1` [32a, (3-(3,5-dibromo-4-hydroxyphenyl)-1,2,4-oxadiazol-5-yl)(4-(3-fluorophenyl)piperazin-1-yl)methanone], the half-maximal inhibitory concentration (IC50) came to 17.2 µM.

Consider `CC(C)(C)C(=O)CN(Cc1cccc(C(F)(F)F)c1)C(=O)c1nc(-c2cc(Cl)c(O)c(Cl)c2)no1` [91a, 3-(3,5-dichloro-4-hydroxyphenyl)-N-(3,3-dimethyl-2-oxobutyl)-N-(3-(trifluoromethyl)benzyl)-1,2,4-oxadiazole-5-carboxamide], for which the IC50 was found to be 2.15 µM.

On to `CN(C(=O)c1nc(-c2cc(Br)c(O)c(Br)c2)no1)c1ccc(OC(F)(F)F)cc1` [3a, 3-(3,5-dibromo-4-hydroxyphenyl)-N-methyl-N-(4(trifluoromethoxy)phenyl)-1,2,4-oxadiazole-5-carboxamide], for which the IC50 was determined as 2.62 µM.

The assay is the same for the next values; noted with them: thiadiazole-containing compounds (Table 12), read-out: IC50.
For `Oc1c(Cl)cc(-c2nnc(Oc3ccc(Oc4ccccc4)cc3)s2)cc1Cl` [10h, 2,6-dichloro-4-(5-(4-phenoxyphenoxy)-1,3,4-thiadiazol-2-yl)phenol], the IC50 turned out to be 20.8 µM.

As to `Oc1c(Cl)cc(-c2nnc(-c3snnc3-c3ccccc3)s2)cc1Cl` [5h, 2,6-dichloro-4(5-(4-phenyl-1,2,3-thiadiazol-5-yl)-1,3,4-thiadiazol-2-yl)phenol], the IC50 was found to be 13.4 µM.
